Test results taken from US20080161288A1, “COMPOUNDS” (Pfizer Inc., priority 2006, published 2008).

Columns and labels:
[1] = biological target: T1, bovine beta-2 adrenoceptor (Bos taurus, UniProt Q28044); assay: cAMP assay in CHO cells transfected with the bovine beta-2 adrenoceptor; type: cell-based; conditions: cAMP (DiscoveRx Hit Hunter cAMP II) in CHO cells transfected with bovine beta-2 adrenoceptor, 30 minutes with compound, 0.5 mM IBMX
T1 construct: expressed in transfected cells; host or cells: CHO cells
T1 sequence (Q28044 whole entry): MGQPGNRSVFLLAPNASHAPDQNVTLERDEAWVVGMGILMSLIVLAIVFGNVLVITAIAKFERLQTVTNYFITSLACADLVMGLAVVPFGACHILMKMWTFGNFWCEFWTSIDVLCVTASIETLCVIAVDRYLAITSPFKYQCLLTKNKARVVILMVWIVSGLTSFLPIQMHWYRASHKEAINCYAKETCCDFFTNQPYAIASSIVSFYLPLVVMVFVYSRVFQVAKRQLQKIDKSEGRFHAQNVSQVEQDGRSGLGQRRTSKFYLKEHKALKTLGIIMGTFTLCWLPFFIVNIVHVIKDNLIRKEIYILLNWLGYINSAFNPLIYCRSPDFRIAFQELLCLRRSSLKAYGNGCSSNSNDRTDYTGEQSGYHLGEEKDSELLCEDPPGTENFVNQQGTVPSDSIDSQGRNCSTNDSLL
Description: (§1) CHO cells transfected with the bovine or porcine beta-2 adrenceptors were maintained in culture in DMEM/HAMS F12+10% FBS+2 mM glutamine+500 μg/ml geneticin (for the porcine receptor the medium was supplement with 1.5 mM HEPES) at 37° C. with a 5% CO2 atmosphere.
(§2) Cells were plated into 96 well viewplates in medium and incubated overnight at 37° C. with a 5% CO2 atmosphere. The cells were pre-incubated with 0.5 mM IBMX in PBS for 30 minutes prior to incubation with increasing concentrations of experimental compound (5×10^−12 to 10^−5 M) for 30 minutes at 37° C. with a 5% CO2 atmosphere. At the end of the incubation time the compound was removed and the cells assayed for cAMP using the DiscoveRx Hit Hunter cAMP II™ assay kit.
(§3) Duplicate samples were run for each experimental compound and the data generated was analysed using EC50 analysis software in Graphpad Prism.

[2] = biological target: T2, porcine beta-2 adrenoceptor (Sus scrofa, UniProt Q28997); assay: cAMP assay in CHO cells transfected with the porcine beta-2 adrenoceptor; type: cell-based; conditions: cAMP (DiscoveRx Hit Hunter cAMP II) in CHO cells transfected with porcine beta-2 adrenoceptor, 30 minutes with compound, 0.5 mM IBMX
T2 construct: expressed in transfected cells; host or cells: CHO cells
T2 sequence (Q28997 whole entry): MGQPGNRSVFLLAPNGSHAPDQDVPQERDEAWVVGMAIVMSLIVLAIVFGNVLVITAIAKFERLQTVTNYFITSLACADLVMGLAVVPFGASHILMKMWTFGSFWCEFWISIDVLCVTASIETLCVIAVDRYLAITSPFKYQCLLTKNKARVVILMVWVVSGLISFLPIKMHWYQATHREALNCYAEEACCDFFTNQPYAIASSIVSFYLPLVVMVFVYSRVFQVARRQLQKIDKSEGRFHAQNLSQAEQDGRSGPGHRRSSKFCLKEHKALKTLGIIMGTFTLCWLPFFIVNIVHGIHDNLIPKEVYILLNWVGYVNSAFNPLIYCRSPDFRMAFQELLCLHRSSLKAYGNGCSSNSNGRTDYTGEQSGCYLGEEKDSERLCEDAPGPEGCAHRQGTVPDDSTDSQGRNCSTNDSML
Description: as §1, §2, §3

Row | SMILES | EC50 [1] [nM] | EC50 [2] [nM]
1 | CC(CCc1c(F)cccc1Cl)N[C@@H]1CCn2c(=O)[nH]c3cccc(c32)[C@H]1O (mixture of isomers) [Example 32, 6-{[3-(2-Chloro-6-fluorophenyl)-1-methylpropyl]amino}-7-hydroxy-4,5,6,7-tetrahydroimidazo[4,5,1-jk][1]benzazepin-2(1H)-one] | 8.6 | 2.9
2 | CC(CCc1ccc(O)c(C(F)(F)F)c1)NC1CCn2c(=O)[nH]c3cccc(c32)C1O (single isomer, unassigned) [Example 60, 7-Hydroxy-6-({3-[4-hydroxy-3-(trifluoromethyl)phenyl]-1-methylpropyl}amino)-4,5,6,7-tetrahydroimidazo[4,5,1-jk][1]benzazepin-2(1H)-one] | 10.5 | 15.9
3 | CC(C=Cc1cccc(O)c1)NC1CCn2c(=O)[nH]c3cccc(c32)C1O (stereo not shown) [Example 41, 7-Hydroxy-6-{[3-(3-hydroxyphenyl)-1-methylprop-2-en-1-yl]amino}-4,5,6,7-tetrahydroimidazo[4,5,1-jk][1]benzazepin-2(1H)-one] | 13.3 | 6.6
4 | CC(CCc1cc(F)cc(Cl)c1O)N[C@@H]1CCn2c(=O)[nH]c3cccc(c32)[C@H]1O (mixture of isomers) [Example 27, 6-{[3-(3-Chloro-5-fluoro-2-hydroxyphenyl)-1-methylpropyl]amino}-7-hydroxy-4,5,6,7-tetrahydroimidazo[4,5,1-jk][1]benzazepin-2(1H)-one] | 0.6 | 2.2
5 | CC(CCc1ccc(OCC2CC2)cc1)N[C@@H]1CCn2c(=O)[nH]c3cccc(c32)[C@H]1O (mixture of isomers) [Example 1c, 6-({3-[4-(Cyclopropylmethoxy)phenyl]-1-methylpropyl}amino)-7-hydroxy-4,5,6,7-tetrahydroimidazo[4,5,1-jk][1]benzazepin-2(1H)-one] | 12.2 | 4.8
6 | CC(CCc1cccc(C(F)(F)F)c1)N[C@@H]1CCn2c(=O)[nH]c3cccc(c32)[C@H]1O (mixture of isomers) [Example 30, 7-Hydroxy-6-({1-methyl-3-[3-(trifluoromethyl)phenyl]propyl}amino)-4,5,6,7-tetrahydroimidazo[4,5,1-jk][1]benzazepin-2(1H)-one] | 37.1 | 5.5
7 | CC(CCc1ccc(O)c(F)c1F)NC1CCn2c(=O)[nH]c3cccc(c32)C1O (single isomer, unassigned) [Example 37, 6-{[3-(2,3-Difluoro-4-hydroxyphenyl)-1-methylpropyl]amino}-7-hydroxy-4,5,6,7-tetrahydroimidazo[4,5,1-jk][1]benzazepin-2(1H)-one] | 2.8 | 1.9
8 | CC(CCc1ccc(O)c(F)c1)NC1CCn2c(=O)[nH]c3cccc(c32)C1O (single isomer, unassigned) [Example 36, 6-{[3-(3-Fluoro-4-hydroxyphenyl)-1-methylpropyl]amino}-7-hydroxy-4,5,6,7-tetrahydroimidazo[4,5,1-jk][1]benzazepin-2(1H)-one] | 1.4 | 2.2
9 | CC(CCc1cc(C#N)ccc1O)N[C@@H]1CCn2c(=O)[nH]c3cccc(c32)[C@H]1O (mixture of isomers) [Example 22, 4-Hydroxy-3-(3-{[7-hydroxy-2-oxo-1,2,4,5,6,7-hexahydroimidazo[4,5,1-jk][1]benzazepin-6-yl]amino}butyl)benzonitrile] | 1.2 | 2.3
10 | CC(CCc1ccc(Cl)cc1Cl)N[C@@H]1CCn2c(=O)[nH]c3cccc(c32)[C@H]1O (mixture of isomers) [Example 29, 6-{[3-(2,4-Dichlorophenyl)-1-methylpropyl]amino}-7-hydroxy-4,5,6,7-tetrahydroimidazo[4,5,1-jk][1]benzazepin-2(1H)-one] | 6.9 | 6.4
11 | COc1ccc(CCC(C)NC2CCn3c(=O)[nH]c4cccc(c43)C2O)cc1 (stereo not shown) [Example 34, 7-Hydroxy-6-{[3-(4-methoxyphenyl)-1-methylpropyl]amino}-4,5,6,7-tetrahydroimidazo[4,5,1-jk][1]benzazepin-2(1H)-one] | 20.3 | 30.4
12 | CC(CCc1ccc(OC(C)C)cc1)N[C@@H]1CCn2c(=O)[nH]c3cccc(c32)[C@H]1O (mixture of isomers) [Example 16, 7-Hydroxy-6-{[3-(4-isopropoxyphenyl)-1-methylpropyl]amino}-4,5,6,7-tetrahydroimidazo[4,5,1-jk][1]benzazepin-2(1H)-one] | 17.3 | 5.5
13 | CC(CCc1ccc(NC(=O)C(F)(F)F)cc1)NC1CCn2c(=O)[nH]c3cccc(c32)C1O (single isomer, unassigned) [Example 59] | 10.4 | 12.1
14 | COc1ccccc1CCC(C)N[C@@H]1CCn2c(=O)[nH]c3cccc(c32)[C@H]1O (mixture of isomers) [Example 20, 7-Hydroxy-6-{[3-(2-methoxyphenyl)-1-methylpropyl]amino}-4,5,6,7-tetrahydroimidazo[4,5,1-jk][1]benzazepin-2(1H)-one] | 7.5 | 35.8
15 | CC(CCc1cccc(CO)c1)N[C@@H]1CCn2c(=O)[nH]c3cccc(c32)[C@H]1O (mixture of isomers) [Example 44, 7-Hydroxy-6-({3-[3-(hydroxymethyl)phenyl]-1-methylpropyl}amino)-4,5,6,7-tetrahydroimidazo[4,5,1-jk][1]benzazepin-2(1H)-one] | 75.7 | 61.7
16 | CC(CCc1cc(Br)cc(Br)c1O)N[C@@H]1CCn2c(=O)[nH]c3cccc(c32)[C@H]1O (mixture of isomers) [Example 47, 6-{[3-(3,5-Dibromo-2-hydroxyphenyl)-1-methylpropyl]amino}-7-hydroxy-4,5,6,7-tetrahydroimidazo[4,5,1-jk][1]benzazepin-2(1H)-one] | > 200 | > 300
17 | CC(CCc1ccccc1OC(C)C)NC1CCn2c(=O)[nH]c3cccc(c32)C1O (stereo not shown) [Example 35, 7-Hydroxy-6-{[3-(2-isopropoxyphenyl)-1-methylpropyl]amino}-4,5,6,7-tetrahydroimidazo[4,5,1-jk][1]benzazepin-2(1H)-one] | 7.3 | 1.8
18 | CC(CCc1ccc(F)cc1O)N[C@@H]1CCn2c(=O)[nH]c3cccc(c32)[C@H]1O (mixture of isomers) [Example 24, 6-{[3-(4-Fluoro-2-hydroxyphenyl)-1-methylpropyl]amino}-7-hydroxy-4,5,6,7-tetrahydroimidazo[4,5,1-jk][1]benzazepin-2(1H)-one] | 2.7 | 4.2

Second part, the compound after the results:

Row | EC50 [1] [nM] | EC50 [2] [nM] | SMILES
19 | 3.6 | 1.9 | CC(CCc1ccc(O)cc1)N[C@@H]1CCn2c(=O)[nH]c3cccc(c32)[C@H]1O (single isomer, unassigned) [Example 2d, 7-Hydroxy-6-{[3-(4-hydroxyphenyl)-1-methylpropyl]amino}-4,5,6,7-tetrahydroimidazo[4,5,1-jk][1]benzazepin-2(1H)-on]
20 | 200 | 172 | COc1cccc(CCC(C)N[C@@H]2CCn3c(=O)[nH]c4cccc(c43)[C@H]2O)c1O (single isomer, unassigned) [Example 8a, 7-hydroxy-6-{[3-(2-hydroxy-3-methoxyphenyl)-1-methylpropyl]amino}-4,5,6,7-tetrahydroimidazo[4,5,1-jk][1]benzazepin-2(1H)-one]
21 | 5.9 | 2.3 | CC(CCc1ccccc1)N[C@@H]1CCn2c(=O)[nH]c3cccc(c32)[C@H]1O (single isomer, unassigned) [Example 9d, 7-Hydroxy-6-[(1-methyl-3-phenylpropyl)amino]-4,5,6,7-tetrahydroimidazo[4,5,1-jk][1]benzazepin-2(1H)-one]
22 | 0.7 | 1.1 | COc1cccc(CCC(C)N[C@@H]2CCn3c(=O)[nH]c4cccc(c43)[C@H]2O)c1O (single isomer, unassigned) [Example 8b, 7-hydroxy-6-{[3-(2-hydroxy-3-methoxyphenyl)-1-methylpropyl]amino}-4,5,6,7-tetrahydroimidazo[4,5,1-jk][1]benzazepin-2(1H)-one]
23 | 2 | 0.9 | Cc1ccccc1CCC(C)N[C@@H]1CCn2c(=O)[nH]c3cccc(c32)[C@H]1O (mixture of isomers) [Example 13b, 7-hydroxy-6-{[1-Methyl-3-(2-methylphenyl)propyl]amino}-4,5,6,7-tetrahydroimidazo[4,5,1-jk][1]benzazepin-2(1H)-one]
24 | 0.8 | 1.7 | CC(CCc1cc(F)cc(F)c1O)N[C@@H]1CCn2c(=O)[nH]c3cccc(c32)[C@H]1O (mixture of isomers) [Example 10b, 6-{[3-(3,5-Difluoro-2-hydroxyphenyl)-1-methylpropyl]amino}-7-hydroxy-4,5,6,7-tetrahydroimidazo[4,5,1-jk][1]benzazepin-2(1H)-one]
25 | 307 | 473 | CC(CCc1cccc(Cl)c1O)N[C@@H]1CCn2c(=O)[nH]c3cccc(c32)[C@H]1O (single isomer, unassigned) [Example 5a, 6-{[3-(3-Chloro-2-hydroxyphenyl)-1-methylpropyl]amino}-7-hydroxy-4,5,6,7-tetrahydroimidazo[4,5,1-jk][1]benzazepin-2(1H)-one]
26 | 27.1 | 5.6 | CC(CCc1ccc2c(c1)CCO2)N[C@@H]1CCn2c(=O)[nH]c3cccc(c32)[C@H]1O (single isomer, unassigned) [Example 3c, 6-{[3-(2,3-Dihydro-1-benzofuran-5-yl)-1-methylpropyl]amino}-7-hydroxy-4,5,6,7-tetrahydroimidazo[4,5,1-jk][1]benzazepin-2(1H)-one]
